Patent US10221426B2, “Constitutively active PYR/PYL receptor proteins for improving plant stress tolerance” (The Regents of the University of California, priority 2009, dated 2019)

Key:
[1] = molecular target: T1, PYR1-HAB1 (Arabidopsis thaliana, UniProt O49686); experiment: Yeast two-hybrid BD-PYR1 / AD-HAB1 interaction, X-gal stain; type: cell-based; conditions: 10 μM, except epi-brassinolide (50 nM)
T1 construct: the Pyr1 open reading frame was PCR amplified from genomic DNA; expressed in transfected cells; host or cells: yeast strain Y190
T1 sequence (O49686 1-191): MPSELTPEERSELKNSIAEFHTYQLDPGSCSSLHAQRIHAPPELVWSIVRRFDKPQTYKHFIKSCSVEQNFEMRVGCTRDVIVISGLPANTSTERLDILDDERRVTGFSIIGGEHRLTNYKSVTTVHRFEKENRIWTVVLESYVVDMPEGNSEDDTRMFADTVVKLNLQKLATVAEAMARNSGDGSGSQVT
T1 sequence (Q9CAJ0 23-511 partner): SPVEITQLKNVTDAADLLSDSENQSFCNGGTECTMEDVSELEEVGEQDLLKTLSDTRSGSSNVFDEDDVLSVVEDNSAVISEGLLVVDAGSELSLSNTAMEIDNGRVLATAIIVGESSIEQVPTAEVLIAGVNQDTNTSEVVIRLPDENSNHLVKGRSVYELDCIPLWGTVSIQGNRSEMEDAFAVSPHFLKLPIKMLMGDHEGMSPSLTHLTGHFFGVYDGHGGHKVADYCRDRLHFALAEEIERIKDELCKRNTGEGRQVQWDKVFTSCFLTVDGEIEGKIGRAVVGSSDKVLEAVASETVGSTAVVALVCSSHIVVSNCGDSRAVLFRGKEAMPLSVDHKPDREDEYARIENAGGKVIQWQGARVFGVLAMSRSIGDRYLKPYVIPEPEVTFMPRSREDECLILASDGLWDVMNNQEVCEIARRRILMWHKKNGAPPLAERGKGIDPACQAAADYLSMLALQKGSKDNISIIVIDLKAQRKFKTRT
Description: (§1) Given that PYR1 is necessary for pyrabactin action and is a predicted ligand-binding protein, we hypothesized that pyrabactin agonizes ABA signaling by inducing a protein-protein interaction between PYR1 and a downstream effector. To test this, ˜2 million prey cDNA clones were screened against a PYR1 Y2H bait construct on media containing 10 μM pyrabactin. To create the PYR1 Y2H bait construct, the Pyr1 open reading frame was PCR amplified from genomic DNA and cloned to pGem-T easy vector (Promega). After sequence confirmation, the Pyr1 ORF was then cloned in-frame between EcoRI and SalI sites of the pBD-GAL4 Cam vector (Stratagene) and transformed into yeast strain Y190. For the screen, an etiolated seedling cDNA library (J. Kim, K., Harter, A., Theologis, Proc Natl Acad Sci USA 94, 11786 (Oct. 28, 1997)) (ABRC stock CD4-22) was used. The cDNA library was first converted from phage to plasmid DNA, yielding 7.6×10^7 transformants. Plasmid DNA prepared from library was then used to transform Y190 as described in the GAL4 Two-Hybrid system manual (Stratagene). For each screen, 40 μg of prey plasmid was transformed into 1 ml of competent Y190 cell harboring bait construct and then grown on SD agar plates lacking His, Leu, and Trp, but containing 15 mM 3-AT and 10 μM pyrabactin. After 4 days incubation at 30° C., well-grown colonies were rescued and interactions validated using filter lift assay or chloroform-agarose overlay method and X-Gal staining. This identified two pyrabactin-dependent hits which sequencing determined encoded cDNAs for the PP2C HAB1, a close relative of the well-characterized ABA response factor ABI1 (A. Saez et al., The Plant Journal 37, 354 (2004); N. Leonhardt et al., THE PLANT CELL 16, 596 (2004)). Next, Y2H strains expressing an AD-HAB1 fusion protein and a BD-PYR1 fusion protein were grown on plates and tested for interactions in response to various compounds, all at 10 μM except for epi-brassinolide (50 nM) and dimethyl sulfoxide (DMSO) (carrier solvent, 1%). […] Thus, PYR1 interacts with HAB1 in a (+)-ABA dependent fashion.

[2] = molecular target: T2, PYL3-HAB1 (Arabidopsis thaliana, UniProt Q9SSM7); experiment: Yeast two-hybrid BD-PYL3 / AD-HAB1 interaction; type: cell-based; conditions: 10 μM
T2 construct: BD-PYR/PYL fusion proteins were constructed in the same manner as for BD-PYR1 above; expressed in transfected cells; host or cells: yeast (Y190, as for BD-PYR1)
T2 sequence (Q9SSM7 1-209): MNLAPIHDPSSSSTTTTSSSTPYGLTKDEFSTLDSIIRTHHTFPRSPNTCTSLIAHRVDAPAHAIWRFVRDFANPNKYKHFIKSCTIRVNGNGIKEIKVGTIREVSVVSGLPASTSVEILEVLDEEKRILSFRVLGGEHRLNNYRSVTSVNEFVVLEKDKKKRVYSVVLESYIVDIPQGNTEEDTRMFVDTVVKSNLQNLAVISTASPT
T2 sequence (Q9CAJ0 23-511 partner): T1 sequence (Q9CAJ0 23-511 partner)
Description: as §1
To see if ABA and pyrabactin responsiveness is unique to PYR1, we tested 11 of the 13 PYL proteins as described above, using Y2H strains expressing an AD-HAB1 fusion protein and a BD-PYR/PYL fusion protein (listed at the left of FIG. 3A). BD-PYR/PYL fusion proteins were constructed in the same manner as for BD-PYR1 above. […] Of these, only Pyr1 is highly transcribed in seeds, which likely explains why mutations in Pyr1 cause the seeds to be insensitive to pyrabactin. […] However the interactions of PYLs 5-12 with the PP2Cs are indicative that the entire protein family is likely to share a similar mechanism of action involving PP2C modulation, as we describe below. Thus, we conclude that entire family modulates ABA responses via PP2C interactions.
The yeast strains expressing PYR/PYL receptors and type 2 C protein phosphatases were also used to screen HPLC-fractionated plant extracts for the presence of endogenous compounds that activate PYL/PYL receptors PYR1, PYL2, PYL3, and/or PYL4. HPLC fractionation of extracts was used to identify compounds different from abscisic acid (the known agonist). […] Purification of the agonist was achieved via multiple rounds of chromatographic separation coupled to yeast two hybrid assays that informed the fractions to move forward at each step of the purification. The structure of the purified agonist was deduced by X-ray crystallography of crystalline purified agonist.

[3] = molecular target: T3, HAB1 in the presence of PYL4 (Arabidopsis thaliana, UniProt O80920); experiment: PP2C phosphatase assay (pNPP), GST-HAB1 in the presence of PYL4; type: biochemical; conditions: recombinant PYL4 refolded from inclusion bodies
T3 construct: vector pHB3; made in house
T3 sequence (O80920 1-207): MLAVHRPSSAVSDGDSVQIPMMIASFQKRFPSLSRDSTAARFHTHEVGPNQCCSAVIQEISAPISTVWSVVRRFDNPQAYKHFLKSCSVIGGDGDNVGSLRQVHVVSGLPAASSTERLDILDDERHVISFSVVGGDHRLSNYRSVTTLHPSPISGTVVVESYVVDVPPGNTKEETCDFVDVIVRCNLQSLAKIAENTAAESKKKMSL
T3 sequence (Q9CAJ0 23-511 partner): T1 sequence (Q9CAJ0 23-511 partner)

Compound | PYR1-HAB1 interaction by X-gal stain [1] | PYL3-HAB1 interaction by X-gal stain [2] | inhibition of HAB1 phosphatase activity in the presence of PYL4 [3]
CC1=CC(=O)CC(C)(C)C1(O)/C=C/C(C)=C\C(=O)O (single isomer, unassigned; (+)) [(+)-ABA] | strong interactions | respond | inhibits HAB1 phosphatase activity
CC1=CC(=O)CC(C)(C)[C@@]1(O)/C=C/C(C)=C\C(=O)O [ABA, Abscisic acid] | – | interact with HAB1 in an ABA-stimulated manner | saturable inhibition
O=S(=O)(NCc1ccccn1)c1ccc(Br)c2ccccc12 [pyrabactin] | promotes interactions | promotes interactions | –
